Reference: publication PMC7088078 (Journal of Inorganic and Organometallic Polymers and …, 2008)
Counter-ions that a name gives are not always drawn.

How the values were obtained:
[1] = test system: L929; assay: Cytotoxicity assay; format: cell-based, mouse; settings: trypan blue dye exclusion after 7 days, ± one SD
[2] = test system: 143; assay: Cytotoxicity assay; format: cell-based, human; settings: trypan blue dye exclusion after 7 days, ± one SD
[3] = test system: Vero; assay: Cytotoxicity assay; format: cell-based, African green monkey; settings: trypan blue dye exclusion after 7 days, ± one SD
[4] = test system: BS-C-1; assay: Cytotoxicity assay; format: cell-based, African green monkey; settings: trypan blue dye exclusion after 7 days, ± one SD
[5] = test system: Reovirus ST3; assay: Plaque reduction assay; format: cell-based, reovirus serotype 3 (ST3) strain Dearing; settings: Reovirus ST3 in L929 cells, ± one SD
[6] = test system: Vaccinia WR; format: cell-based, Vaccinia virus, strain WR
[7] = test system: HSV-1; assay: Plaque reduction assay; format: cell-based, Herpes simplex virus 1, strain GHSV-UL46; settings: HSV-1 in Vero cells; ± one SD
[8] = test system: VZV; format: cell-based, Varicella Zoster virus, strain Ellen; settings: VZV in BS-C-1 cells; ± one SD
[9] = test system: L929; assay: Chemotherapeutic activity; settings: after 7 days, ± one SD
[10] = test system: 143; assay: Chemotherapeutic activity; settings: after 7 days, ± one SD
[11] = test system: Vero; assay: Chemotherapeutic activity; settings: after 7 days, ± one SD
[12] = test system: BS-C-1; assay: Chemotherapeutic activity; settings: after 7 days, ± one SD
[13] = test system: L929, 143, Vero, BS-C-1 cell lines; assay: Cell inhibition as a function of drug concentration; settings: Fig. 1; cell line not specified
[14] = test system: reovirus, vaccinia, HSV-1, VZV; format: cell-based
[15] = test system: HSV-1; settings: cited from earlier work
[16] = test system: vaccinia; settings: cited from earlier work
[17] = test system: ssRNA viruses; settings: in words; cited from earlier work

| Compound | MCC, minimum cytotoxicity concentration that causes a reduction in cell viability >10% [1] [µg/mL] | MCC, minimum cytotoxicity concentration that causes a reduction in cell viability >10% [2] [µg/mL] | MCC, minimum cytotoxicity concentration that causes a reduction in cell viability >10% [3] [µg/mL] | MCC, minimum cytotoxicity concentration that causes a reduction in cell viability >10% [4] [µg/mL] | MIC, minimum inhibitory concentration required to reduce virus plaque number by 50% [5] [µg/mL] | MIC, minimum inhibitory concentration required to reduce virus plaque number by 50% ([5]; listed as acyclovir) [µg/mL] | MIC, minimum inhibitory concentration required to reduce virus plaque number by 50% [6] [µg/mL] | MIC, minimum inhibitory concentration required to reduce virus plaque number by 50% [7] | MIC, minimum inhibitory concentration required to reduce virus plaque number by 50% [8] [µg/mL] | GI50 (50% reduction in cell growth) [9] [µg/mL] | GI50 (50% reduction in cell growth) [10] [µg/mL] | GI50 (50% reduction in cell growth) [11] [µg/mL] | GI50 (50% reduction in cell growth) [12] [µg/mL] | GI50 [13] | inhibition of the tested viruses [14] | concentration shown to inhibit HSV-1 [15] [µg/mL] | concentration shown to inhibit vaccinia [16] [µg/mL] | antiviral activity against ssRNA viruses [17] |
| --- | --- | --- | --- | --- | --- | --- | --- | --- | --- | --- | --- | --- | --- | --- | --- | --- | --- | --- |
| Nc1nc2c(ncn2COCCO)c(=O)[nH]1 [Acyclovir] | 500 ± 42.0 | 425 ± 32.0 | 400 ± 42.0 | 440 ± 39.0 | >250 | > 250 | >200 | about 0.08 μg/mL |  |  |  |  |  |  |  |  |  |  |
| N.N.[Cl][Pt][Cl] [Cisplatin] |  |  |  |  | >25 |  | >25 | >25 µg/mL | >25 | 75 ± 6.0 | 50 ± 4.0 | 50 ± 4.0 | 50 ± 3.0 | about 50 μg/mL |  |  |  |  |
| [Cl][Pt-2]([Cl])([Cl])[Cl].[K+].[K+] [Compound K2PtCl4, potassium tetrachloroplatinate(II)] | 100 ± 9.0 | 75 ± 6.0 | 100 ± 9.0 | 75 ± 6.0 | >100 |  | >75 | >100 µg/mL | >75 | 200 ± 20.0 | 175 ± 12.0 | 200 ± 16.0 | 175 ± 20.0 |  | little inhibition |  |  |  |
| CCN(CC)CCOc1ccc2c(c1)C(=O)c1cc(OCCN(CC)CC)ccc1-2 [Tilorone hydrochloride, 2,7-bis[2-(9-diethylamino)ethoxy]-9H-fluorene-9-one] |  |  |  |  |  |  |  |  |  |  |  |  |  |  |  | 10 | 10 | no antiviral activity |
